Assay results published in patent US6313132A, “Therapeutically active diarylpropylamines; their pharmaceutically acceptable salts; a method for their preparation and method for their use” (Pharmacia AB, priority 1999, dated 2001).
Structures can show the parent of a compound that is named as a salt.

The compounds below were run against T1, muscarinic receptor (Cavia porcellus, UniProt H0W1Z3) (assay: Functional in vitro studies: antagonism of carbachol-induced contraction of urinary bladder smooth muscle strips). Conditions: male guinea pig urinary bladder strips; carbachol agonist; 60 min incubation with antagonist; Krebs-Henseleit pH 7.4, 37° C.; KB from dose ratios (Schild); 60 min; read-out: KB-value.
T1 construct: Smooth muscle strips of the urinary bladder were dissected in a Krebs-Henseleit solution; from tissue; host or cells: guinea pig urinary bladder smooth muscle strips
T1 sequence (H0W1Z3 1-590): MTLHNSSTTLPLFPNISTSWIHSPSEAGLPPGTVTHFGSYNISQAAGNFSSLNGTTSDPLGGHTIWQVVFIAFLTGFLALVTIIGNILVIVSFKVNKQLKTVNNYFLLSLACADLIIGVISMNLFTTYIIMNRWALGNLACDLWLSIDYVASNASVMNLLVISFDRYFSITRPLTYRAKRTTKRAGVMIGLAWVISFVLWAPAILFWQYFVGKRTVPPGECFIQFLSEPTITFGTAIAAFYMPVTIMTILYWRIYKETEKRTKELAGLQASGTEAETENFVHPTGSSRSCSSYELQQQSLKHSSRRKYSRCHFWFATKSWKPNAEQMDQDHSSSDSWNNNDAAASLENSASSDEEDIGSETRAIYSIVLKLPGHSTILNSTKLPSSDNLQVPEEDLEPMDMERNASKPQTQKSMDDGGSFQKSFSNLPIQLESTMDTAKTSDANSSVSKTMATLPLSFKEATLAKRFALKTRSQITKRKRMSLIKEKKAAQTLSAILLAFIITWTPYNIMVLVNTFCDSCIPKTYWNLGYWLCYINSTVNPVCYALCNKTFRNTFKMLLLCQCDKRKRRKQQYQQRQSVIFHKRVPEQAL
Format: cell-based, guinea pig
Description: Functional in Vitro Studies
Male guinea pigs, weighing about 300 g, were killed by a blow on the neck and exsanguinated. Smooth muscle strips of the urinary bladder were dissected in a Krebs-Henseleit solution (pH 7.4). The strip preparations were vertically mounted between two hooks in thermostatically controlled (37° C.) organ baths (5 ml). One of the hooks was adjustable and connected to a force transducer (FT 03, Grass Instruments). The Krebs-Henseleit solution was continuously bubbled with carbogen gas (93.5% O2 /6.5% CO2) to maintain the pH at 7.4. Isometric tension was recorded by a Grass Polygraph (Model 79D). A resting tension of approximately 5 mN was initially applied on each muscle strip and the preparations were allowed to stabilise for at least 45 min. The resting tension was repeatedly adjusted and the preparations were washed several times during the stabilisation period.
Carbachol (carbamylcholine chloride) was used as the standard muscarinic receptor agonist. In each experiment, the viability of the preparations and the reproducibility of their contractile responses were initially tested by two consecutive additions of a submaximal concentration (3×10^-6 M) of carbachol. A concentration-response curve to carbachol was then generated by cumulative addition of carbachol to the organ-bath (i.e., stepwise increase of the agonist concentration until the maximal contractile response was reached), followed by washing out and a resting period of at least 15 min. before a fix concentration of the test compound (antagonist) was added to the organ-bath. After 60 min. of incubation with the antagonist, a second cumulative concentration-responsecurve to carbachol was generated. Responses were expressed as percent of the maximal response to carbachol. EC50 -values for carbachol in the absence (control) and presence of antagonist were graphically derived and dose ratios (r) were calculated. Dissociation constants, KB, for the antagonists were calculated using equation (1) (Schild, H. I., Br. J. Pharmacol. Chemother. 1949, 4, 277-280), where [A] is the concentration of test compound:

Row | Kb | Compound
1 | 15 nM | CC(C)N(CC[C@H](c1ccccc1)c1cc(C(O)CO)ccc1O)C(C)C (single isomer, unassigned; (+)) [Example 15, (+)-N,N-Diisopropyl-3(R)-[5-(1(R*),2-dihydroxyethyl)-2-hydroxyphenyl]-3-phenylpropanamine fumarate]

Same assay, conditions: male guinea pig urinary bladder strips; carbachol agonist; 60 min incubation with antagonist; Krebs-Henseleit pH 7.4, 37° C.; KB from dose ratios (Schild); read-out: KB-value

Row | Compound | Kb
2 | CC(C)N(CCC(c1ccccc1)c1nc2ccccc2o1)C(C)C (centres unmarked) [Example 34, N,N-Diisopropyl-3-(benzoxazol-2-yl)-3-phenylpropanamine, hydrochloride] | 803 nM
3 | CC(C)N(CC[C@H](c1ccccc1)c1cc(N)ccc1O)C(C)C [Example 27, (R)-(N,N-Diisopropyl-3-(5-amino-2-hydroxyphenyl)-3-phenylpropanaminedihydrochloride] | 7.1 nM
4 | CC(=O)c1ccc(O)c([C@H](CCN(C(C)C)C(C)C)c2ccccc2)c1 [Example 13, (R)-N,N-Diisopropyl-3-(5-acetyl-2-hydroxyphenyl)-3-phenylpropanamine hydrochloride] | 15 nM
5 | CC(C)N(CCC(c1ccccc1)c1cccn1C)C(C)C (centres unmarked) [Example 59, N,N-Diisopropyl-3-(N-methylpyrrol-2-yl)-3-phenylpropanamine fumarate] | 690 nM

Continued, values first:

Row | Kb | Compound
6 | 1.18 nM | CC(C)N(CC[C@H](c1ccccc1)c1cc(CCO)ccc1O)C(C)C [Example 12, (R)-N,N-Diisopropyl-3-[2-hydroxy-5-(2-hydroxyethyl)phenyl]-3-phenylpropanamine hydrochloride]
7 | 1.5 nM | CC(C)N(CC[C@H](c1ccccc1)c1cc(CCCO)ccc1O)C(C)C [Example 29, (R) -N,N-Diisopropyl-3-[2-hydroxy-5-(3-hydroxypropyl)phenyl]-3-phenylpropanamine hydrochloride]
8 | 26 nM | CC(C)N(CC[C@H](c1ccccc1)c1cc(CNCCOCCO)ccc1O)C(C)C [Example 8, (R)-N,N-Diisopropyl-3-[5-(7-hydroxy-2-aza-5-oxaheptyl)-2-hydroxyphenyl]-3-phenylpropanazine di-(S)-mandelate]
